Reference: patent publication US10245264B2, “Substituted imidazo[1,2-a]pyrazines as soluble guanylate cyclase activators” (Merck Sharp & Dohme Corp., priority 2015, dated 2019)

Biological target: T1, sGC α1/β1 heterodimer stably expressed in CHO-K1 cells (CHO-K1/sGC) (Homo sapiens, UniProt Q02108+Q02153)
T1 construct: expressed in transfected cells
T1 sequence (Q02108 1-690): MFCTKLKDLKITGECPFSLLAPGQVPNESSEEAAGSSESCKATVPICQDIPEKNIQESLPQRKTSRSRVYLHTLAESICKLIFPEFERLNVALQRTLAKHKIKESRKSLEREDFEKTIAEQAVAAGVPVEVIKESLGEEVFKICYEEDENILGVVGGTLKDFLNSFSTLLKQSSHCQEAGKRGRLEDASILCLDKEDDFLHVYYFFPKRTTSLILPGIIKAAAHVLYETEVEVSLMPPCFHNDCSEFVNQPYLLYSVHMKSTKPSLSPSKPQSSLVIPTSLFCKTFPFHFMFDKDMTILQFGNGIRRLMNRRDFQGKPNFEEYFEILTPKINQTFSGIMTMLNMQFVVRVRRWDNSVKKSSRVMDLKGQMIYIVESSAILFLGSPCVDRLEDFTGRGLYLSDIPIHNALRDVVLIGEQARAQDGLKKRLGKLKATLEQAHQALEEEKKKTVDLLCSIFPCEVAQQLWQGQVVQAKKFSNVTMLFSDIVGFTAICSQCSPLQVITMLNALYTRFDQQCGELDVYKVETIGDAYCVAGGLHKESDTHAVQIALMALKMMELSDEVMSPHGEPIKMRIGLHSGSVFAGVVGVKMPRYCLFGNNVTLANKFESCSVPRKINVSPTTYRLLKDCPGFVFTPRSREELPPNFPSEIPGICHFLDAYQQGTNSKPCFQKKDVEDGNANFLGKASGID
T1 sequence (Q02153 1-619): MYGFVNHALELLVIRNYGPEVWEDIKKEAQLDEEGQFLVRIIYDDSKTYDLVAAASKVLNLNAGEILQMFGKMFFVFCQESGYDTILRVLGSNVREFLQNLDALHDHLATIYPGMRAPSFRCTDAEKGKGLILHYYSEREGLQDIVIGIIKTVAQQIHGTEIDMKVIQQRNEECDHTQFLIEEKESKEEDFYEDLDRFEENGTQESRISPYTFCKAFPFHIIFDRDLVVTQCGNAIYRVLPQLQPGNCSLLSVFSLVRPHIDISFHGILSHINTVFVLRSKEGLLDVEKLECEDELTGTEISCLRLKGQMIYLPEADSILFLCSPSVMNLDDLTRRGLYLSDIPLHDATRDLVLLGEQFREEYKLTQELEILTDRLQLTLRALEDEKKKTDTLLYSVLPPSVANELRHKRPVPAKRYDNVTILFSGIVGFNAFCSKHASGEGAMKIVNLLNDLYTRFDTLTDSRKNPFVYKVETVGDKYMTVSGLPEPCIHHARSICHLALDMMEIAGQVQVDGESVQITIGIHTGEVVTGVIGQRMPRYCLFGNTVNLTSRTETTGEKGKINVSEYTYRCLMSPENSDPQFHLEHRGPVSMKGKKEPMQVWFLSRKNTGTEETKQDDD
Assay: Cell-based sGC functional assay (CASA assay), cGMP generation by HTRF
Details: for Emax: CHO-K1, maximum cGMP production of Compound A set to 100% activation, read-out: % Act. (percent activation relative to Compound A); for EC50: CHO-K1/sGC cells, 1 hr at 37° C., 4P fit, presence or absence of DETA-NO not given, read-out: IP (nM) (inflection point)
Text: Biological Assay 1: Cell-Based sGC Functional Assay (CASA Assay) Rationale
sGC is a heme-containing enzyme that converts GTP to secondary messenger cGMP. Increases in cGMP levels affect several physiological processes including vasorelaxation through multiple downstream pathways. […] Heme-dependent activators (HDAs) preferentially activate sGC containing a ferrous heme group. To determine the effect of sGC activators on enzyme activity, the CASA assay was developed to monitor the generation of cGMP in a cell line that stably expresses the heterodimeric sGC protein.
A CHO-K1 cell line stably expressing the sGC α1/β1 heterodimer was generated using a standard transfection protocol. CHO-K1 cells were transfected with plasmids pIREShyghsGCα1 and pIRESneo-hsGCβ1 simultaneously using FUGENE reagent. Clones that stably express both subunits were selected with hygromycin and neomycin for ˜2 weeks. Clone #7 was chosen for the assay and was designated CHO-K1/sGC. CHO-K1/sGC cells were maintained in F-K12 medium containing 10% heat-inactivated Fetal Bovine Serum (FBS), 100 μg/mL penicillin/streptomycin, 0.5 mg/mL hygromycin and 0.25 mg/mL G418. The cells were then cryopreserved in LN2. On the day of the assay, cells were thawed and resuspended in EBSS Assay Buffer (Sigma, E3024) supplemented with 5 mM MgCl2, 10 mM HEPES (4-(2-hydroxyethyl)piperazine-1-ethanesulfonic acid) and 0.05% BSA (bovine serum albumin) (EAB) and cell density was then adjusted to 4×10^5/mL with EAB. IBMX (3-isobutyl-1-methylxanthin, 0.5 mM) was added to inhibit degradation of cGMP. Compounds were diluted from DMSO stock solutions and added to the assay at a final DMSO concentration of 2.5%. Cells were incubated with compounds in the presence and absence of 1 μM of Diethylenetriamine/nitric oxide adduct (DETA-NO; Sigma, 17018) for 1 hr at 37° C. At the end of the incubation period, the reaction was terminated and the cells were lysed with the detection reagents from Cisbio Kits. The level of intracellular cGMP was determined using an HTRF-based assay kit (CisBio, 62GM2PEC), which detects the displacement of a fluorescence labeled cGMP from its specific antibody. The cGMP produced by test compounds was directly compared to the maximum cGMP production (this value was set to equal 100% activation.) of the published sGC-HDA Compound A:
[drawing 101] (Example 1 in WO 2010/065275, published Jun. 10, 2010). The test compounds' activities were then expressed as a percentage of Compound A, the standard in every experiment. This percent activation was calculated either in the presence or absence of DETA-NO which was then plotted. IP and maximum fold induction was derived using ADA analysis software for 4P fit.
The compounds in the Examples of the instant invention had inflection points (IP) less than or equal to 10 μM and many had IPs less than or equal to about 1 μM.

Compound `CC1(c2ccc(F)cc2)C(=O)Nc2nc(-c3cn4cc(C(F)(F)F)nc4c(Oc4cccc(F)c4F)n3)nc(N)c21` (stereo not drawn) [Example 37A, 4-amino-2-(8-(2,3-difluoro-phenoxy)-2-(trifluoromethyl)imidazo[1,2-a]pyrazin-6-yl)-5-(4-fluorophenyl)-5-methyl-5H-pyrrolo[2,3-d] pyrimidin-6(7H)-one] has an Emax of 83% and an EC50 of 719 nM.
`CC1(c2ccc(F)cc2)C(=O)Nc2nc(-c3cn4cc(C(F)(F)F)nc4c(Oc4ccccc4)n3)nc(N)c21` (stereo not drawn) [Example 36A, 4-amino-5-(4-fluorophenyl)-5-methyl-2-(8-phenoxy-2-(trifluoromethyl)imidazo[1,2-a]pyrazin-6-yl)-5H-pyrrolo[2,3-d] pyrimidin-6(7H)-one] was tested, and the Emax was 129% and the EC50 was 1470 nM.
`CC1(c2ccc(Cl)cc2)C(=O)Nc2nc(-c3cn4ccnc4c(OCC4CCCOC4)n3)nc(N)c21` (single isomer, unassigned; fast eluting) [Example 66A, 4-amino-5-(4-chlorophenyl)-5-methyl-2-[8-(tetrahydro-2H-pyran-3-ylmethoxy)imidazo[1,2-a]pyrazin-6-yl]-5,7-dihydro-6H-pyrrolo [2,3-d] pyrimidin-6-one (fast eluting)] was tested, and the EC50 was 1710 nM and the “% Act. (percent activation relative to Compound A)” value (maximum cGMP production of Compound A set to 100% activation) was 115%.
`CC1(c2ccc(F)cc2)C(=O)Nc2nc(-c3cn4ccnc4c(OCCC4CC4)n3)nc(N)c21` (stereo not drawn) [Example 44A, 4-amino-2-[8-(2-cyclopropyl-ethoxy)imidazo [1,2-a]pyrazin-6-yl]-5-(4-fluorophenyl)-5-methyl-5,7-dihydro-6H-pyrrolo[2,3-d] pyrimidin-6-one] showed an Emax of 100% and an EC50 of 60 nM.
`CC1(c2ccc(Cl)cc2)C(=O)Nc2nc(-c3cn4ccnc4c(NCC4CCCCO4)n3)nc(N)c21` (single isomer, unassigned; fast eluting) [Example 71A, 4-amino-5-(4-chlorophenyl)-5-methyl-2-{8-[(tetrahydro-2H-pyran-2-ylmethyl)amino]imidazo [1,2-a]pyrazin-6-yl}-5,7-dihydro-6H-pyrrolo[2,3-d] pyrimidin-6-one (fast eluting)] was tested, and the Emax was 96% and the EC50 was 175 nM.
In the case of `CCCC(C)Oc1nc(-c2nc(N)c3c(n2)NC(=O)C3(C)c2ccc(F)cc2)cn2ccnc12` (racemic) [Example 65A, 4-amino-5-(4-fluorophenyl)-5-methyl-2-[8-(1-methyl-butoxy)imidazo [1,2-a]pyrazin-6-yl]-5,7-dihydro-6H-pyrrolo[2,3-d] pyrimidin-6-one], the Emax was 101% and the EC50 was 461 nM.
`CC1(c2ccc(F)cc2)C(=O)Nc2nc(-c3cn4ccnc4c(Oc4ccc(F)c(F)c4F)n3)nc(N)c21` (stereo not drawn) [Example 16A, 4-amino-5-(4-fluorophenyl)-5-methyl-2-[8-(2,3,4-trifluorophenoxy)imidazo[1,2-a]pyrazin-6-yl]-5,7-dihydro-6H-pyrrolo [2,3-d]pyrimidin-6-one] gave an Emax of 89% and an EC50 of 37 nM.
In the case of `CC1(c2ccc(F)cc2)C(=O)Nc2nc(-c3cn4ccnc4c(SCCC(F)(F)F)n3)nc(N)c21` (stereo not drawn) [Example 64A, 4-amino-5-(4-fluorophenyl)-5-methyl-2-{8-[(3,3,3-trifluoro-propyl)sulfanyl]imidazo[1,2-a]pyrazin-6-yl}-5,7-dihydro-6H-pyrrolo[2,3-d] pyrimidin-6-one], the Emax was 67% and the EC50 was 73 nM.
`CC1(c2ccc(Cl)cc2)C(=O)Nc2nc(-c3cn4ccnc4c(NCC4CC(F)(F)C4)n3)nc(N)c21` (stereo not drawn) [Example 58A, 4-amino-5-(4-chlorophenyl)-2-(8-{[(3,3-difluorocyclo-butyl)methyl]amino}imidazo [1,2-a]pyrazin-6-yl)-5-methyl-5,7-dihydro-6H-pyrrolo[2,3-d] pyrimidin-6-one] showed an Emax of 109% and an EC50 of 163 nM.
`CC1(C)C(=O)Nc2nc(-c3cn4ccnc4c(Oc4cc(F)ccc4F)n3)nc(N)c21` [Example 26, 4-amino-2-[8-(2,5-difluorophenoxy)imidazo[1,2-a]pyrazin-6-yl]-5,5-dimethyl-5,7-dihydro-6H-pyrrolo[2,3-d] pyrimidin-6-one] gave an Emax of 105% and an EC50 of 718 nM.
With `CC1(c2ccc(F)cc2)C(=O)Nc2nc(-c3cn4ccnc4c(OC4CCCCC4)n3)nc(N)c21` (stereo not drawn) [Example 22A, 4-amino-2-[8-(cyclohexyloxy)imidazo[1,2-a]pyrazin-6-yl]-5-(4-fluorophenyl)-5-methyl-5,7-dihydro-6H-pyrrolo[2,3-d] pyrimidin-6-one] the Emax was 107% and the EC50 was 171 nM.
`CC1(c2ccc(Cl)cc2)C(=O)Nc2nc(-c3cn4ccnc4c(NCC4CCCOC4)n3)nc(N)c21` (single isomer, unassigned; fast eluting) [Example 72A, 4-amino-5-(4-chlorophenyl)-5-methyl-2-{8-[(tetrahydro-2H-pyran-3-ylmethyl)amino]imidazo [1,2-a]pyrazin-6-yl}-5,7-dihydro-6H-pyrrolo[2,3-d] pyrimidin-6-one (fast eluting)] gave an Emax of 96% and an EC50 of 1080 nM.
`CC1(c2ccc(F)cc2)C(=O)Nc2nc(-c3cn4ccnc4c(Oc4ccccc4)n3)nc(N)c21` (stereo not drawn) [Example 9A, 4-amino-5-(4-fluorophenyl)-5-methyl-2-(8-phenoxyimidazo [1,2-a]pyrazin-6-yl)-5,7-dihydro-6H-pyrrolo[2,3-d] pyrimidin-6-one] was tested, and the Emax was 124% and the EC50 was 28 nM.
Work on `CC1(c2ccc(F)cc2)C(=O)Nc2nc(-c3cn4ccnc4c(Oc4ccc(F)c(F)c4)n3)nc(N)c21` (stereo not drawn) [Example 18A, 4-amino-2-[8-(3,4-difluorophenoxy)imidazo[1,2-a]pyrazin-6-yl]-5-(4-fluorophenyl)-5-methyl-5,7-dihydro-6H-pyrrolo[2,3-d] pyrimidin-6-one] yielded an Emax of 98% and an EC50 of 10 nM.
With `CC1(c2ccccc2)C(=O)Nc2nc(-c3cn4ccnc4c(Oc4cc(F)cc(F)c4F)n3)nc(N)c21` (stereo not drawn) [Example 12B, 4-amino-5-methyl-5-phenyl-2-[8-(2,3,5-trifluoro-phenoxy)imidazo [1,2-a]pyrazin-6-yl]-5,7-dihydro-6H-pyrrolo[2,3-d] pyrimidin-6-one] the Emax was 99% and the EC50 was 47 nM.
